Reference: patent EP3959200B1, “NEW TRIAZOLE AND TRIAZOLOTHIADIAZINE DERIVATIVES EXERTING CYTOTOXIC AND APOPTOTIC EFFECTS ON A549 CELLS THROUGH AKT INHIBITION” (Anadolu Universitesi, priority 2020, dated 2022)
Values after ≈ are worked out from the molar mass of the structure shown.

Legend:
[1] = system: kidney fibroblast (BHK-21) cells; settings: cited from earlier work
[2] = system: lung cancer (H-157) cell line; settings: cited from earlier work
[3] = system: ovarian carcinoma (SKOV3); settings: cited from earlier work
[4] = system: human lung adenocarcinoma (A549); settings: cited from earlier work
[5] = system: breast adenocarcinoma (MCF-7); settings: cited from earlier work
[6] = system: kidney cancer (OU-31) cell line; parameters: concentration or dose not given beside the values; settings: cited from earlier work
HCT116 cell line = settings: cited from earlier work
HeLa cell line = settings: cited from earlier work
PC-3 cell line = settings: cited from earlier work
K562 cell line = settings: cited from earlier work
A549 cells = assay: FITC Annexin V/PI apoptosis detection by flow cytometry; type: cell-based, human; settings: at IC50 concentrations
Description: The cells incubated with the compounds were centrifuged at 400 × g for 5 minutes in labeled tubes and washed twice with 1xPBS. Then, the cells were suspended in 1×Annexin-V binding solution at 1×10^6 cells/mL and 100 µL of this cell solution was taken and transferred to tubes. The cells were treated with 5 µL Annexin V FITC and 5 µL of propidium iodide (PI) dyes. Then, the cells were kept at room temperature in the dark for 15 minutes to allow the dye to bind. 400 µL of 1×Annexin-V binding cell solution was transferred to flow cytometry tubes and the amount of early and late apoptotic cells was determined relative to the positive control using the BD FACSAria flow cytometer FACSDiva version 6.1.1 software.

[7] = system: A549 human lung adenocarcinoma cells; assay: MTT cytotoxicity assay; type: cell-based; settings: for IC50: Homo sapiens, A549, read-out: IC50 values A549 cell line; for SI values: SI= IC50 for NIH/3T3 cell line / IC50 for A549 cell line
Description: (§1) In order to be used from this stock, the concentrations ranging from 0.12 to 500 µg/mL (with the highest DMSO ratio of 0.1%) were prepared.
A549 human lung adenocarcinoma cells (ATCC® CCL-185™) were grown in RPMI 1640 medium supplemented with 10% fetal bovine serum, 1% penicillin/streptomycin, in an incubator with carbon dioxide, in a culture medium at 37°C at 95% relative humidity.
(§2) MTT protocol was applied to determine cell viability. […] At the end of the incubation period, 20 µL of MTT dye (5 mg/mL) was added into each well, and the cells were incubated for an additional 4 hours at 37°C. After this process, MTT dye was removed from the cells, 200 µL of DMSO was added to each well and left to incubate for 10 minutes. Color change was detected at 540 nm in the ELx808-IU Bio-Tek plate reader. Inhibition% values were determined for each concentration of compounds. Inhibitory concentration 50 (IC50) values of the compounds were calculated by drawing a dose-response curve with their concentrations against these values. All experiments were carried out in triplicate. The results were given as mean±standard deviation. Inhibition% = 100−[(ODtest compound−ODblank/ODsolvent control−ODblank)×100] [formula]
Selective index (SI) values were determined using the following formula. SI […] IC50 for NIH/3T3 cell line/IC50 for A549 cell line [formula]

Akt = Akt activity assay (Akt colorimetric in cell ELISA); type: cell-based, human; settings: for Inhibition % / IC50 value (Akt inhibitory effects): 24 hours; for Akt inhibitory effects: result in words
Description: Briefly, the media was removed from the wells and 100 µL of 4% formaldehyde was added. The plate was incubated for 15 minutes in a fume hood. Formaldehyde was removed and the plate was washed twice with 1X […] solution (TBS) to 100 µL/well. 1X TBS was removed and 100 µL of 1X permeabilization buffer was added to each well and left at room temperature for 15 minutes. After removing the 1X permeabilization buffer, the wells were washed once with 100 µL of 1X TBS. 1X TBS was removed and 100 µL of the quenching solution was added to the wells and left at room temperature for 20 minutes. Then, this solution was removed. The plate was washed once with 1X TBS, 100 µL of blocking buffer was added to the wells and left at room temperature for 30 minutes. At the end of this period, the blocking buffer was removed and 50 µL of primary antibody was added to the wells. The plate was closed with a sealer and incubated overnight at 4°C. The primary antibody was removed and plate wells were washed three times with 100 µL of wash buffer. After removing the wash buffer, 100 µL of diluted horseradish peroxidase (HRP) conjugate was added to the wells. It was incubated for 30 minutes at room temperature. After removing this conjugate, 100 µL of 3,3',5,5'-tetramethylbenzidine (TMB) stop solution was added and absorbance was measured at 450 nm for 30 minutes. The experiment was carried out in triplicate. The values of the blank wells were subtracted from the values of the untreated control and treated cells. The Akt activity% was determined as the relative absorbance of treated versus untreated control cells.

colon carcinoma (HCT116) = settings: HCT116, MTT; read-out: LC50 (the source's name); cited from earlier work
[8] = system: breast adenocarcinoma (MCF-7); settings: MCF-7, MTT; read-out: LC50 (the source's name); cited from earlier work
[9] = system: NIH/3T3 mouse embryonic fibroblast cells; assay: MTT cytotoxicity assay; type: cell-based; settings: Mus musculus, NIH3T3, 24 hours, read-out: IC50 values NIH/3T3 cell line
Description: as §1
NIH/3T3 mouse embryonic fibroblast cells (ATCC® CRL-1658™) were grown in DMEM medium supplemented with 10% fetal bovine serum, 1% penicillin/streptomycin, in an incubator with carbon dioxide, in a culture medium at 37°C at 95% relative humidity.
as §2

[10] = system: human epithelial cervical carcinoma (HeLa) cells; settings: MTT; cited from earlier work

Cc1ccc(C2=Nn3c(nnc3-c3ccncc3)SC2)cc1 [3-(pyridine-4-yl)-6-(p-tolyl)-7H-[1,2,4]triazolo[3,4-b][1,3,4]thiadiazine]
inhibition [1]: 72.6%

O=c1oc2ccccc2cc1-c1nnc2n1N=C(c1ccc(-c3ccccc3)cc1)CS2 [3-(6-(Biphenyl-4-yl)-7H-[1,2,4]triazolo[3,4-b][1,3,4]-thiadiazine-3-yl)-2H-chromen-2-one]
IC50 [2]: 1.01 ± 0.12 µM

COc1cc([C@@H]2c3cc4c(cc3[C@@H](O[C@@H]3O[C@@H]5CO[C@@H](C)O[C@H]5[C@H](O)[C@H]3O)[C@H]3COC(=O)[C@H]23)OCO4)cc(OC)c1O [etoposide]
IC50 [3]: 2.3 ± 0.12 µM
IC50 [4]: 2.99 ± 0.22 µM
IC50 [5]: 1.89 ± 0.16 µM

O=C(CSc1nnc2n1N=C(c1ccc(F)cc1)CS2)c1ccc(F)cc1 [1-(4-fluorophenyl)-2-((6-(4-fluorophenyl)-7H-[1,2,4]triazolo[3,4-b][1,3,4]thiadiazine-3-yl)thio)ethanone]
growth [6]: 47.42%
inhibition [6]: 52.58%

O=c1[nH]cc(F)c(=O)[nH]1 [5-fluorouracil]
IC50 (HCT116 cell line): 68.7 µM
IC50 (HeLa cell line): 57.2 µM
IC50 (PC-3 cell line): 57 µM

S=c1[nH]c(C23CC4CC(CC(C4)C2)C3)nn1CNc1ccccc1Cl [5-(adamantan-1-yl)-2-[((2-chlorophenyl)amino)methyl]-2,4-dihydro-3H-1,2,4-triazole-3-thione]
IC50 (K562 cell line): 27.1 ± 5.35 µM

O=C(CSc1nnc2n1N=C(c1ccc(Br)cc1)CS2)c1ccc(Br)cc1 [1-(4-bromophenyl)-2-((6-(4-bromophenyl)-7H-[1,2,4]triazolo[3,4-b][1,3,4]thiadiazine-3-yl)thio)ethanone]
growth [6]: 46.76%
inhibition [6]: 53.24%

N.N.[Cl][Pt][Cl] [Cisplatin, reference compound]
IC50 [2]: 1.31 ± 0.03 µM
IC50 (K562 cell line): 5.45 ± 0.18 µM
Early apoptotic cells % (A549 cells): 1.8%
Late apoptotic cells % (A549 cells): 5.8%
Necrosis % (A549 cells): 7.0%
apoptotic activity (A549 cells; early plus late apoptotic cells): 7.6%
IC50 values A549 cell line ([7]; MTT, 24 hours): 11.50 ± 0.71 µg/mL
Inhibition % (Akt; 5.75 µg/mL): 40.70±1.62%
Inhibition % (Akt; 11.50 µg/mL): 97.89±0.86%
IC50 value (Akt inhibitory effects) (Akt): 7.00 ± 0.50 µg/mL

S=C(Nc1ccc(Oc2ccccc2)cc1)Nc1nc(-c2nnc(S)n2-c2ccc(Oc3ccccc3)cc2)cs1 [1-[4-(5-Mercapto-4-(4-phenoxyphenyl-4H-1,2,4-triazole-3-yl)thiazole-2-yl]-3-(4-phenoxyphenyl)thiourea]
CC50 (colon carcinoma (HCT116)): 23.5 µM
CC50 [8]: 17.4 µM

COc1cccc(C2=Nn3c(nnc3-c3ccncc3)SC2)c1 [6-(3-methoxyphenyl)-3-(pyridine-4-yl)-7H-[1,2,4]triazolo[3,4-b][1,3,4]thiadiazine]
inhibition [1]: 73.3%

Nn1c(CCc2cccnc2)nnc1SCC(=O)Nc1nc2ccc(F)cc2s1 [Compound 3c, 2-((4-Amino-5-(2-(pyridine-3-yl)ethyl)-4H-1,2,4-triazole-3-yl)thio)-N-(6-fluorobenzothiazole-2-yl)acetamide]
IC50 [9]: 170 ± 17.3 µg/mL (≈ 396 µM)
Early apoptotic cells % (A549 cells): 0.5%
Late apoptotic cells % (A549 cells): 3.7%
Necrosis % (A549 cells): 4.0%
Viable cells% (A549 cells): 91.8%
IC50 ([7]; MTT, 24 hours): 0.27 ± 0.02 µg/mL (≈ 0.629 µM)
SI values [7]: 629.63
Inhibition % (Akt; 0.07 µg/mL): 15.28±5.56%
Inhibition % (Akt; 0.14 µg/mL): 36.64±13.39%
Inhibition % (Akt; 0.27 µg/mL): 39.84±6.49%
Akt inhibitory effects (Akt): did not show significant Akt inhibitory effects

Cc1ccccc1NCn1nc(C23CC4CC(CC(C4)C2)C3)[nH]c1=S [5-(adamantan-1-yl)-2-[(o-tolylamino)methyl]-2,4-dihydro-3H-1,2,4-triazole-3-thione]
IC50 (K562 cell line): 25.4 ± 0.89 µM

COc1cc(-c2nnc3n2N=C(c2ccc(C)cc2)CS3)cc(OC)c1OC [6-(p-tolyl)-3-(3,4,5-trimethoxyphenyl)-7H-[1,2,4]triazolo[3,4-b][1,3,4]thiadiazine]
IC50 [3]: 3.43 ± 0.33 µM
IC50 [4]: 0.6 ± 0.02 µM
IC50 [5]: 2.75 ± 0.05 µM

Nn1c(CCc2cccnc2)nnc1SCC(=O)Nc1nccs1 [Compound 3a, 2-((4-Amino-5-(2-(pyridine-3-yl)ethyl)-4H-1,2,4-triazole-3-yl)thio)-N-(thiazole-2-yl)acetamide]
IC50 [9]: 207 ± 11.6 µg/mL (≈ 572 µM)
Early apoptotic cells % (A549 cells): 0.4%
Late apoptotic cells % (A549 cells): 3.1%
Necrosis % (A549 cells): 5.6%
Viable cells% (A549 cells): 91.0%
IC50 ([7]; MTT, 24 hours): 0.48 ± 0.04 µg/mL (≈ 1.33 µM)
SI values [7]: 430.54
Inhibition % (Akt; 0.48 µg/mL): 54.76±5.33%
Akt inhibitory effects (Akt): did not show significant Akt inhibitory effects

Fc1ccccc1NCn1nc(C23CC4CC(CC(C4)C2)C3)[nH]c1=S [5-(adamantan-1-yl)-2-[((2-fluorophenyl)amino)methyl]-2,4-dihydro-3H-1,2,4-triazole-3-thione]
IC50 (K562 cell line): 27.7 ± 2.46 µM

CS(=O)(=O)c1ccc(Cc2n[nH]c(=S)n2N=Cc2c(F)cccc2Cl)cc1 [4-{ [(2-chloro-6-fluorophenyl)methylene]amino}-5-[4-(methylsulfonyl)benzyl]-2,4-dihydro-3H-1,2,4-triazole-3-thione]
EC50 [10]: 25 µM

c1cncc(CCc2nnc3n2N=C(c2ccc4ccccc4c2)CS3)c1 [Compound 2j, 6-(Naphthalene-2-yl)-3-(2-(pyridine-3-yl)ethyl)-7H-[1,2,4]triazolo[3,4-b][1,3,4] thiadiazine]
IC50 [9]: 6.66 ± 1.04 µg/mL (≈ 17.9 µM)
Early apoptotic cells % (A549 cells): 1.0%
Late apoptotic cells % (A549 cells): 3.6%
Necrosis % (A549 cells): 5.0%
Viable cells% (A549 cells): 90.3%
IC50 ([7]; MTT, 24 hours): 4 µg/mL (≈ 10.8 µM)
SI values [7]: 1.67
Inhibition % (Akt; 2.0 µg/mL): 17.80±2.08%
Inhibition % (Akt; 4.0 µg/mL): 48.23±7.29%
Akt inhibitory effects (Akt): did not show significant Akt inhibitory effects

Nn1c(CCc2cccnc2)nnc1SCC(=O)Nc1nc2ccccc2s1 [Compound 3b, 2-((4-Amino-5-(2-(pyridine-3-yl)ethyl)-4H-1,2,4-triazole-3-yl)thio)-N-(benzothiazole-2-yl)acetamide]
IC50 [9]: 23.3 ± 6.11 µg/mL (≈ 56.7 µM)
Early apoptotic cells % (A549 cells): 0.7%
Late apoptotic cells % (A549 cells): 3.0%
Necrosis % (A549 cells): 3.2%
Viable cells% (A549 cells): 93.1%
IC50 ([7]; MTT, 24 hours): 0.68 ± 0.18 µg/mL (≈ 1.65 µM)
SI values [7]: 34.31
Inhibition % (Akt; 0.98 µg/mL): 14.58±4.29%
Inhibition % (Akt; 3.90 µg/mL): 72.89±5.45%
IC50 value (Akt inhibitory effects) (Akt): 2.23 ± 0.12 µg/mL (≈ 5.42 µM)
